Experiment: Dissolution of AMP alone in organic solvent
Type: physicochemical
Description: (§1) […] […] 1 eq. of a phosphorylated nucleotide such as adefovir can be substituted for each eq. of AMP.
as §1

## Nc1ncnc2c1ncn2[C@@H]1O[C@H](COP(=O)(O)O)[C@@H](O)[C@H]1O [AMP, Adenosine monophosphate]
0.5 g in 10 mL of N-methyl pyrrolidone, absence of tyrosine butyrate
  Dissolution of AMP alone in N-methyl pyrrolidone: will not dissolve
1 g in 10 mL of glycerol formal, absence of isoleucine butyrate
  Dissolution of AMP alone in glycerol formal: will not dissolve
